US11820822B2, “Methods for sensitizing cancer cells to T cell-mediated killing by modulating molecular pathways” (DANA-FARBER CANCER INSTITUTE, INC., priority 2017, dated 2023)

Assays:
[1] = test system: B16F10-Cas9 cells co-cultured with Pmel-1 T cells; assay: Genome-scale CRISPR-Cas9 screen, selection with Pmel-1 T cells; type: cell-based, mouse; settings: Table 3; B16F10-Cas9 cells pre-treated with IFNγ, co-cultured with Pmel-1 T cells 1:1 for three days; negative = depleted, positive = enriched
[2] = test system: B16F10-Cas9 cells pulsed with SIINFEKL peptide, co-cultured with OT-I T cells; assay: Genome-scale CRISPR-Cas9 screen, selection with OT-I T cells; type: cell-based, mouse; settings: Table 3; B16F10-Cas9 cells pulsed with SIINFEKL, co-cultured with OT-I T cells 1:1 for one day; negative = depleted, positive = enriched

Sequence	Pmel+ (sgRNA Log(2) fold change, Pmel-1 selection versus control T cells) [1]	OT1 (sgRNA Log(2) fold change, OT-I selection versus control T cells) [2]
CAGCAGCAAGTTCACAGGTG (chemistry not fully specified)	-1.37	-3.04
CAGCATTGACAATACGACCA (chemistry not fully specified)	0.62	-3.84
CAGCCTGCTGAGGATCCAGA (chemistry not fully specified)	-1.07	-2.33
CAGGACTTCTGGTCTATCCG (chemistry not fully specified)	-1.47	-3.14
CAGTGTCACAACCCACCGGA (chemistry not fully specified)	0.23	-2.75
CATAGCCAGAACAGTTGACC (chemistry not fully specified)	-0.66	-2.44
CATGAGGTAGAATAGTTCGT (chemistry not fully specified)	2.15	-0.65
CATGCAATACATGCCAAAGG (chemistry not fully specified)	-0.22	-2.39
CCAAACACCCCACATATGGT (chemistry not fully specified)	-0.79	-2.24
CCATATCCAAATAGCCACAG (chemistry not fully specified)	-2.19	-3.59
CCATTGTATAACTGTCTGCG (chemistry not fully specified)	-1.14	-3.02
CCCACGAATTCGTCACAGGG (chemistry not fully specified)	2.63	1.32
CCCGGACTGGATCAACACCG (chemistry not fully specified)	-0.09	-3.76
CCCGGGAATAGCGTACAGCT (chemistry not fully specified)	0.70	-2.71
CCGAGACCCCAATAGTGCAA (chemistry not fully specified)	2.89	0.71
CCGCAGCAGATAGACACCAT (chemistry not fully specified)	-0.11	-2.54
CCGCTCGAAGAAGCACTCCT (chemistry not fully specified)	0.95	-3.04
CCTCCGACATTCCGTAACTG (chemistry not fully specified)	-1.90	-2.32
CCTGGGCTAGCACATAACCA (chemistry not fully specified)	0.10	-3.35
CCTGGGTACCAACTGACGAA (chemistry not fully specified)	-2.96	-2.91
CCTTCAATAACGTTAAACAG (chemistry not fully specified)	-0.26	-2.79
CCTTTAGTAGCAGAAGCCGC (chemistry not fully specified)	0.73	-2.95
CGACGCAAGTGGGAGCAGAG (chemistry not fully specified)	3.91	-2.09
CGATGCCATTCGAATGACAG (chemistry not fully specified)	8.40	1.57
CGGATGGCCACACGTAACAG (chemistry not fully specified)	3.00	0.20
CGGCCCGCCGATGTCGTGTG (chemistry not fully specified)	-0.25	-3.19

Sequence	Pmel+ (sgRNA Log(2) fold change, Pmel-1 selection versus control T cells) [1]	OT1 (sgRNA Log(2) fold change, OT-I selection versus control T cells) [2]
CGGGTATTACAGACTAACTG (chemistry not fully specified)	3.20	2.71
CTCAGCTGGATACAACCAGG (chemistry not fully specified)	0.00	-2.27
CTCTTCCAACACGTCCAAGT (chemistry not fully specified)	3.56	0.64
CTGAGCATGTCTAACACGAG (chemistry not fully specified)	-0.37	-2.99
CTGCACCAATGTTGGTCACG (chemistry not fully specified)	2.82	0.32
CTGCAGCATATCGTCAACCA (chemistry not fully specified)	-0.72	-2.30
CTGTTACCTTCATAGATAAG (chemistry not fully specified)	0.00	-2.50
CTTCAGATCTCTCTCGAATG (chemistry not fully specified)	-2.11	-2.84
CTTCCTGGACATCGACGTGG (chemistry not fully specified)	0.56	-2.12
CTTGGTCAAATACACTACAG (chemistry not fully specified)	2.66	1.61
CTTGTGACGGTAATTCTGAA (chemistry not fully specified)	0.00	-2.48
GAAAAATCTGTACACCACCG (chemistry not fully specified)	-0.30	-2.64
GAAAAGCAAGCGTAATCTCC (chemistry not fully specified)	8.13	2.70
GAACACTCAGCAAATTACAG (chemistry not fully specified)	-0.81	-2.58
GAAGACCAAAGAAGTTCATG (chemistry not fully specified)	2.37	-0.52
GAAGTAAAGGGATTTAACAG (chemistry not fully specified)	-0.84	-2.59
GAATACGAAGCAGAAAAGGT (chemistry not fully specified)	0.00	-2.50
GAATCCTCCAGAAGGAATCG (chemistry not fully specified)	2.99	0.26
GAATCTGAATGGAGGAACCT (chemistry not fully specified)	0.00	-2.21
GAATGATATTATAGCGACGA (chemistry not fully specified)	0.59	-2.20
GAATTGCAACGCCCACACCG (chemistry not fully specified)	0.39	-3.93
GACAAGATGACAAACCTGGT (chemistry not fully specified)	3.45	1.65
GAGATCTGCACATTCCGCAC (chemistry not fully specified)	-0.78	-2.69
GAGTTGCAGCCAGATACGCG (chemistry not fully specified)	-1.28	-3.25
GATATGCTACAGGACCTTCG (chemistry not fully specified)	0.44	-2.83
GATGTGTCCCTAGTCTACCG (chemistry not fully specified)	-0.24	-3.40
